From US20200281202A1 (priority 2017, published 2020)

System: Phytophthora infestans
Assay: microbe, parasite or virus in culture
Assay type: cell-based
Conditions: for inhibition of growth at 30 ppm: Phytophthora infestans, 168 h, read-out: control (radial growth) compared to the untreated check; for control (radial growth) compared to the untreated check: 30 ppm in Rye Agar medium, seven days at 18° C.

SMILES	inhibition of growth at 30 ppm [%]	control (radial growth) compared to the untreated check [%]
CS(=O)(=O)Oc1cccc(Cl)c1C1CC(c2csc(C3CCN(C(=O)COc4cc(C(F)(F)F)ccn4)CC3)n2)=NO1 (stereo not shown) [Compound 46, 3-chloro-2-(3-(2-(1-(2-((4-(trifluoromethyl)pyridin-2-yl)oxy)acetyl)piperidin-4-yl)thiazol-4-yl)-4,5-dihydroisoxazol-5-yl)phenyl methanesulfonate]	70	
O=C(COc1ccc(C(F)(F)F)cn1)N1CCC(c2nc(C3=NOC(c4c(Cl)cccc4Cl)C3)cs2)CC1 (stereo not shown) [Compound 47, 1-(4-(4-(5-(2,6-dichlorophenyl)-4,5-dihydroisoxazol-3-yl)thiazol-2-yl)piperidin-1-yl)-2-((5-(trifluoromethyl)pyridin-2-yl)oxy)ethan-1-one]	70	
CN(C)C(N(CC(=O)N1CCC(c2nc(C3=NOC(c4c(F)cccc4F)C3)cs2)CC1)c1ccc(C(F)(F)F)cn1)=[N+](C)C (stereo not shown) [Compound 69]	70	
O=C(CSc1ncccc1C(F)(F)F)N1CCC(c2nc(C3=NOC(c4c(Cl)cc(Cl)cc4Cl)C3)cs2)CC1 (stereo not shown) [Compound 63]	70	
Cn1nc(C(F)(F)F)cc1OCC(=O)N1CCC(c2nc(C3=NOC(c4c(Cl)cccc4Cl)C3)cs2)CC1 (stereo not shown) [Compound 2]		70
O=C(CNc1ncccc1C(F)(F)F)N1CCC(c2nc(C3=NOC(c4c(Cl)cccc4Cl)C3)cs2)CC1 (stereo not shown) [Compound 82, 1-(4-(4-(5-(2,6-dichlorophenyl)-4,5-dihydroisoxazol-3-yl)thiazol-2-yl)piperidin-1-yl)-2-((3-(trifluoromethyl)pyridin-2-yl)amino)ethan-1-one]	70	
Cn1nc(OCC(=O)N2CCC(c3nc(C4=NOC(c5c(F)cccc5F)C4)cs3)CC2)cc1C(F)F (stereo not shown) [Compound 9]	70	
Cc1cnc(OCC(=O)N2CCC(c3nc(C4=NOC(c5c(F)cccc5F)C4)cs3)CC2)c(C(F)(F)F)c1 (stereo not shown) [Compound 88, 1-(4-(4-(5-(2,6-difluorophenyl)-4,5-dihydroisoxazol-3-yl)thiazol-2-yl)piperidin-1-yl)-2-((5-methyl-3-(trifluoromethyl)pyridin-2-yl)oxy)ethan-1-one]	70	
O=C(COc1cccc(C(F)(F)F)n1)N1CCC(c2nc(C3=NOC(c4c(Cl)cccc4Cl)C3)cs2)CC1 (stereo not shown) [Compound 70, 1-(4-(4-(5-(2,6-dichlorophenyl)-4,5-dihydroisoxazol-3-yl)thiazol-2-yl)piperidin-1-yl)-2-((6-(trifluoromethyl)pyridin-2-yl)oxy)ethan-1-one]	70	
O=C(COc1ncc(C(F)(F)F)cc1Br)N1CCC(c2nc(C3=NOC(c4c(F)cccc4F)C3)cs2)CC1 (stereo not shown) [Compound 53]		70
O=C(COc1ccc(C(F)(F)F)cn1)N1CCC(c2nc(C3=NOC(c4c(F)cccc4F)C3)cs2)CC1 (stereo not shown) [Compound 49, 1-(4-(4-(5-(2,6-difluorophenyl)-4,5-dihydroisoxazol-3-yl)thiazol-2-yl)piperidin-1-yl)-2-((5-(trifluoromethyl)pyridin-2-yl)oxy)ethan-1-one]	70	
Cc1cnc(OCC(=O)N2CCC(c3nc(C4=NOC(c5c(Cl)cccc5Cl)C4)cs3)CC2)c(C(F)(F)F)c1 (stereo not shown) [Compound 84, 1-(4-(4-(5-(2,6-dichlorophenyl)-4,5-dihydroisoxazol-3-yl)thiazol-2-yl)piperidin-1-yl)-2-((5-methyl-3-(trifluoromethyl)pyridin-2-yl)oxy)ethan-1-one]	70	
CS(=O)(=O)Oc1cccc(Cl)c1C1CC(c2csc(C3CCN(C(=O)COc4ccc(C(F)(F)F)cn4)CC3)n2)=NO1 (stereo not shown) [Compound 48, 3-chloro-2-(3-(2-(1-(2-((5-(trifluoromethyl)pyridin-2-yl)oxy)acetyl)piperidin-4-yl)thiazol-4-yl)-4,5-dihydroisoxazol-5-yl)phenyl methanesulfonate]	70	
Cc1ccc(C(F)(F)F)c(OCC(=O)N2CCC(c3nc(C4OCc5cccc(OS(C)(=O)=O)c5CO4)cs3)CC2)n1 (stereo not shown) [Compound 92, 3-(2-(1-(2-((6-methyl-3-(trifluoromethyl)pyridin-2-yl)oxy)acetyl)piperidin-4-yl)thiazol-4-yl)-1,5-dihydrobenzo[e][1,3]dioxepin-6-yl methanesulfonate]	70	
O=C(COc1ncccc1C(F)(F)F)N1CCC(c2nc(C3OCc4ccccc4CO3)cs2)CC1 [Compound 59, 1-(4-(4-(1,5-dihydrobenzo[e][1,3]dioxepin-3-yl)thiazol-2-yl)piperidin-1-yl)-2-((3-(trifluoromethyl)pyridin-2-yl)oxy)ethan-1-one]	70	
O=C(COc1ncc(C(F)(F)F)cc1Br)N1CCC(c2nc(C3=NOC(c4c(Cl)cccc4Cl)C3)cs2)CC1 (stereo not shown) [Compound 51, 2-((3-bromo-5-(trifluoromethyl)pyridin-2-yl)oxy)-1-(4-(4-(5-(2,6-dichlorophenyl)-4,5-dihydroisoxazol-3-yl)thiazol-2-yl)piperidin-1-yl)ethan-1-one]	70	

SMILES	inhibition of growth at 30 ppm [%]	control (radial growth) compared to the untreated check [%]
Cn1nc(C(F)(F)F)cc1OCC(=O)N1CCC(c2nc(C3=NOC(c4c(F)cccc4F)C3)cs2)CC1 (stereo not shown) [Compound 3, 1-(4-(4-(5-(2,6-difluorophenyl)-4,5-dihydroisoxazol-3-yl)thiazol-2-yl)piperidin-1-yl)-2-((1-methyl-3-(trifluoromethyl)-1H-pyrazol-5-yl)oxy) ethan-1-one]	70	
O=C(COc1cccc(C(F)(F)F)n1)N1CCC(c2nc(C3=NOC(c4c(F)cccc4F)C3)cs2)CC1 (stereo not shown) [Compound 72, 1-(4-(4-(5-(2,6-difluorophenyl)-4,5-dihydroisoxazol-3-yl)thiazol-2-yl)piperidin-1-yl)-2-((6-(trifluoromethyl)pyridin-2-yl)oxy)ethan-1-one]	70	
Cn1nc(C(F)(F)F)cc1OCC(=O)N1CCC(c2nc(C3=NOC(c4c(Cl)cccc4OS(C)(=O)=O)C3)cs2)CC1 (stereo not shown) [Compound 4, 3-chloro-2-(3-(2-(1-(2-((1-methyl-3-(trifluoromethyl)-1H-pyrazol-5-yl)oxy)acetyl)piperidin-4-yl)thiazol-4-yl)-4,5-dihydroisoxazol-5-yl)phenyl methanesulfonate]	70	
Cn1nc(OCC(=O)N2CCC(c3nc(C4=NOC(c5c(Cl)cccc5OS(C)(=O)=O)C4)cs3)CC2)cc1C(F)(F)F (stereo not shown) [Compound 19]		70
O=C(COc1ncccc1C(F)F)N1CCC(c2nc(C3=NOC(c4c(Cl)cccc4Cl)C3)cs2)CC1 (stereo not shown) [Compound 90]	70	
O=C(COc1cc(C(F)(F)F)ccn1)N1CCC(c2nc(C3=NOC(c4c(F)cccc4F)C3)cs2)CC1 (stereo not shown) [Compound 43]	70	
Cn1ccc(OCC(=O)N2CCC(c3nc(C4=NOC(c5c(Cl)cccc5OS(C)(=O)=O)C4)cs3)CC2)n1 (stereo not shown) [Compound 5, 3-chloro-2-(3-(2-(1-(2-((1-methyl-1H-pyrazol-3-yl)oxy)acetyl)piperidin-4-yl)thiazol-4-yl)-4,5-dihydroisoxazol-5-yl)phenyl methanesulfonate]	70	
Cn1nc(OCC(=O)N2CCC(c3nc(C4=NOC(c5c(F)cccc5F)C4)cs3)CC2)cc1C(F)(F)F (stereo not shown) [Compound 20, 1-(4-(4-(5-(2,6-difluorophenyl)-4,5-dihydroisoxazol-3-yl)thiazol-2-yl)piperidin-1-yl)-2-((1-methyl-5-(trifluoromethyl)-1H-pyrazol-3-yl)oxy) ethan-1-one]	70	
Cc1cnc(OCC(=O)N2CCC(c3nc(C4=NOC(c5c(Cl)cc(Cl)cc5Cl)C4)cs3)CC2)c(C(F)(F)F)c1 (stereo not shown) [Compound 83, 2-((5-methyl-3-(trifluoromethyl)pyridin-2-yl)oxy)-1-(4-(4-(5-(2,4,6-trichlorophenyl)-4,5-dihydroisoxazol-3-yl)thiazol-2-yl)piperidin-1-yl)ethan-1-one]	70	
CS(=O)(=O)Oc1cccc(Cl)c1C1CC(c2csc(C3CCN(C(=O)COc4ncccc4C(F)F)CC3)n2)=NO1 (stereo not shown) [Compound 89, 3-chloro-2-(3-(2-(1-(2-((3-(difluoromethyl)pyridin-2-yl)oxy)acetyl)piperidin-4-yl)thiazol-4-yl)-4,5-dihydroisoxazol-5-yl)phenyl methanesulfonate]	70	
Cc1cccnc1OCC(=O)N1CCC(c2nc(C3=NOC(c4c(Cl)cccc4OS(C)(=O)=O)C3)cs2)CC1 (stereo not shown) [Compound 78, 3-chloro-2-(3-(2-(1-(2-((3-methylpyridin-2-yl)oxy)acetyl)piperidin-4-yl)thiazol-4-yl)-4,5-dihydroisoxazol-5-yl)phenyl methanesulfonate]	70	
CS(=O)(=O)Oc1cccc2c1COC(c1csc(C3CCN(C(=O)COc4ncccc4C(F)(F)F)CC3)n1)OC2 (stereo not shown) [Compound 91, 3-(2-(1-(2-((3-(trifluoromethyl)pyridin-2-yl)oxy)acetyl)piperidin-4-yl)thiazol-4-yl)-1,5-dihydrobenzo[e][1,3]dioxepin-6-yl methanesulfonate]	70	
O=C(COc1ncc(C(F)(F)F)cc1Br)N1CCC(c2nc(C3=NOC(c4c(Cl)cc(Cl)cc4Cl)C3)cs2)CC1 (stereo not shown) [Compound 54, 2-((3-bromo-5-(trifluoromethyl)pyridin-2-yl)oxy)-1-(4-(4-(5-(2,4,6-trichlorophenyl)-4,5-dihydroisoxazol-3-yl)thiazol-2-yl)piperidin-1-yl)ethan-1-one]	70	
Cn1ccc(OCC(=O)N2CCC(c3nc(C4=NOC(c5c(F)cccc5F)C4)cs3)CC2)n1 (stereo not shown) [Compound 1, 1-(4-(4-(5-(2,6-difluorophenyl)-4,5-dihydroisoxazol-3-yl)thiazol-2-yl)piperidin-1-yl)-2-((1-methyl-1H-pyrazol-3-yl)oxy)ethan-1-one]	70	
CS(=O)(=O)Oc1cccc(Cl)c1C1CC(c2csc(C3CCN(C(=O)COc4cccc(C(F)(F)F)n4)CC3)n2)=NO1 (stereo not shown) [Compound 71, 3-chloro-2-(3-(2-(1-(2-((6-(trifluoromethyl)pyridin-2-yl)oxy)acetyl)piperidin-4-yl)thiazol-4-yl)-4,5-dihydroisoxazol-5-yl)phenyl methanesulfonate]	70	
